Assay results reported in PMC4838890, “Dynamic and flexible H3K9me3 bridging via HP1β dimerization establishes a plastic state of condensed chromatin” (Nature Communications, 2016).
“Also recorded” adds a separate entry of the source.

Columns and labels:
[1] = biological target: fluorescein-labeled H3K9me3-peptide; experiment: Fluorescence polarization (FP), H3K9me3 peptide; format: binding; settings: 150 mM NaCl, 10 mM triethanolamine pH 7.4, 0.1 mM EDTA, 2 mM DTT, 4°C, read-out: apparent Kd
Experimental: Experiments were performed in 10 mM triethanolamine HCl (pH 7.4), 150 mM NaCl, 0.1 mM EDTA, 2 mM DTT. Titration series of 10 μl volume in 384-well plates were read multiple times on a Plate CHAMELEON II plate reader (HIDEX Oy, Turku, Finland). Multiple readings and independent titration series were averaged after data normalization. […]
hHP1β) using mass spectrometry. For detailed listing of the identified crosslinks see Supplementary […]
(c) Binding of the indicated hHP1β wild type (WT) and mutant proteins to a fluorescein-labeled H3K9me3-peptide was analyzed by FP at 150 mM NaCl. Apparent Kd deduced from the fitted curves are […]
(d) Chromatin coprecipitation of hHP1β WT and mutant proteins with oligonucleosomes. Precipitated material was run on SDS-PAGE and stained with Coomassie Blue. Input, 10 %.
(e) Oligonucleosomes at 2.5 nM were incubated with hHP1β wild type (WT) or mutant proteins at 5 µM and 150 mM NaCl (saturating conditions). DNA remaining in the supernatant after centrifugation was incubated with EtBr and measured by fluorescence reading. Data were n ormalized to DNA levels present in the input. […]
(g) Oligonucleosomes at 6.7 nM were incubated with hHP1β wild type (WT) or mutant proteins at 5 µM and 100 mM NaCl (non-saturating conditions). DNA remaining in the supernatant after centrifugation was incubated with EtBr and measured by fluorescence reading. […]

[2] = tested on: H3K9me3 oligonucleosomes in the absence of the H4 N-terminal tail; experiment: Chromatin coprecipitation, H3K9me3 oligonucleosomes with tailless H4; format: binding, Xenopus laevis; settings: 150 mM NaCl, western blot
Experimental: […] Precipitated chromatin complexes were recovered by centrifugation at 16,100g for 30 min at 4°C. Pellets were washed once with 0.5 ml binding buffer and centrifuged for 15 min at 4 °C. Precipitated material was resuspended in 10 μl 1 × SDS loading buffer and boiled for 5 min before running on SDS–PAGE.
Supplementary Table 1: Summary of conditions used in the different experiments of this study.
experiment result modification template Temp. [NaCl] [MgCl2]
chromatin Fig. 1e,f; Fig. S1f-h; H3K9me3 oligo- 4 150 5

[3] = tested on: immobilized H3 tail peptides, mono- and oligonucleosomes; experiment: Pull-down, H3 tail peptides, mono- and oligonucleosomes; format: binding, Xenopus laevis; settings: immobilized on streptavidin beads, 4°C
Experimental: 4 μg C-terminally biotinylated histone H3 peptides (aa 1–20) or 1 μg of biotinylated nucleosomes or oligonucleosomal arrays were incubated with 40 μl Streptavidin MagnaSphere Paramagmetic beads (Promega, Mannheim, Germany) in 350 μl binding buffer (10 mM triethanolamine (pH 7.5), 150 mM NaCl, 0.1 mM EDTA, 0.1% (v/v) Triton-X100) supplemented with 1 mg ml^−1 BSA for 2.5 h at RT. Unbound material was removed by three washes with 0.5 ml binding buffer. Charged beads were then incubated with 100 pmol recombinant protein in 350 μl binding buffer for 1 h at 4°C on a rotator. Beads were washed three times with 0.5 ml binding buffer for 3 min per wash at 4°C. Bound proteins were eluted in 20 μl 1 × SDS loading buffer and by boiling for 5 min.
Supplementary Table 1: Summary of conditions used in the different experiments of this study. experiment result modification template Temp. [NaCl] [MgCl2] […]
chromatin Fig. 1e,f; Fig. S1f-h; H3K9me3 oligo- 4 150 5 coprecipitation Fig. S2b nucleosomes
Fig. S7d,f; Fig.S9c nucleosomes […]
chromatin sedimentation Fig. 4a; H3K9me3 oligo- 4 150 0
(single point) Fig. S3b nucleosomes […]
chromatin sedimentation. oligo-(titration) Fig. 3a H3K9me3 nucleosomes 4 150 0

[4] = biological target: CSD-CSD interaction of hHP1β monomers; experiment: ITC dilution, CSD-CSD dimerization; format: binding, human; settings: ITC dilution experiments, not shown

Substance: hHP1β WT: recombinant human heterochromatin protein 1β (GenBank NM_001127228), 185 aa
- Kd [1]: 5 ± 2 µM
- recovery at 3.5 mM and 7.0 mM MgCl2 with tailless H4 chromatin [2]: reduced recovery of hHP1β with H3K9me3 oligonucleosomes in the absence of the H4 N-terminal tail at 3.5 mM MgCl2; also recorded: recovery at 7.0 mM MgCl2 was comparable to the level obtained with H3K9me3 oligonucleosomes containing WT core histones
- retention on H3K9me3 versus unmodified matrices [3]: retained much more efficiently on all three matrices in the presence of H3K9me3
- CSD-CSD dimerization strength [4]: nanomolar regime
